# Experiments:
# [1] = molecular target: T1, rat metabotropic glutamate receptor 5 (mGlu5) (Rattus norvegicus, UniProt P31424); test: Single-cell calcium imaging (Fura-2) of quisqualate-evoked calcium oscillations, with photoisomerization by 390/490 nm light; assay type: cell-based; conditions: 3 µM quisqualate
# T1 construct: expressed in transfected cells; host or cells: HEK tsA201 cells
# Description: Cell Culture and Transient Transfection: Human embryonic kidney (HEK) tsA201 cells were maintained at 37 °C and humidified atmosphere with 5% CO2; cells were grown in Dulbecco's Modified Eagle's Medium/Nutrient Mixture F-12 Ham (DMEM/F12, 1:1) medium, supplemented with 10% Fetal Bovine Serum (FBS) and antibiotics (1% Penicillin/Streptomycin). Once at confluence, culture flasks were washed twice with PBS and harvested with 300 µl Accutase. Expression of rat mGlu5a was induced by transient transfection of the cDNA-containing plasmid with X-tremeGENE 9 DNA Transfection Reagent. For transfection, cells were seeded at a concentration of 10^6 cells per well on 6-multiwell plates with a final volume of 2ml, and immediately transfected following manufacturer's instructions (100 µl mixture of 3:1 (µl:µg) of X-tremeGENE 9 DNA TR:mGlu5a plasmid in serum-free medium, 20 minutes incubation). About 24h after transfection, HEK tsA201 cells transiently overexpressing mGlu5a were seeded onto 15 mm glass coverslips pre-treated with Poly-L-Lysine to allow cell adhesion. Seeding concentration was maintained between 2/4·10^5 cells to get preconfluent cultures at the time of experiment. Transfected cells were used for single-cell calcium imaging experiments between 48 and 72 hours after transfection.
# Single-cell Calcium Imaging: At the time of experiments, glass coverslips were mounted onto the recording chamber, and cells were loaded with the high affinity, ratiometric, intracellular calcium indicator Fura-2 AM; the dye was incubated during 30 minutes at 37°C and 5% CO2, at a final concentration of 10 µM in Ca^2+-free extracellular solution (ES, -Ca^2+). We used a ratiometric calcium sensor in order to avoid bleaching artefacts. Cells were then carefully rinsed with fresh ES, three to four times, before the recording chamber was placed on an inverted fully-motorised digital microscope (iMic 2000, Till Photonics, Gräfelfing, Germany). Images were acquired at room temperature with a UV Apochromat 40x oil objective lens (Olympus, Tokio, Japan). Fura-2 AM was excited consecutively for 10 ms at two different wavelengths (340 and 380 nm) as indicated by the manufacturer (Life Technologies, Paisley, UK) by using a Polychrome V light source (Till Photonics) and a 505 nm dichroic beamsplitter (Chroma Technology, Below Falls, VT, USA); emission at 510 nm was filtered by a D535/40nm emission filter (Chroma Technology) and finally collected by a cooled CCD camera (Interline Transfer IMAGO QE, Till Photonics). The fluorescence measurements (excitation + emission recording) were carried out every 2 seconds, and each measurement takes about 10-50 ms. The 340 and 380 nm images were stored by the TILLvisION imaging software (Till Photonics); the ratio of the emission when the sample was excited at 340 nm and the emission when it was excited at 380 nm was recorded and its mean value was calculated for each cell using the same software. Higher ratios correspond to higher intracellular calcium concentrations.
# Agonists and allosteric modulators addition was obtained by carefully pipetting an initial 1:30 dilution of the compound directly into the accessory pool of the recording chamber, obtaining a final dilution of 1:1000 (total DMSO concentration was always lower than 1%). Activation of the agonist was induced in HEK tsA201 mGlu5a transfected cells with the glutamate analogue Quisqualic acid (3 µM). Only evoked, sustained intracellular calcium oscillations were taken into account as consistent cell responses to the application of the agonist; different responses (such as single-peak, peak-and-plateau, etc.), as well as spontaneously oscillating cells, were discarded as unsuitable for calculating the oscillatory frequency.
# Solutions and Reagents: The extracellular solution (ES) used for single-cell calcium imaging contained: 140 mM NaCl, 5.4 mM KCI, 1 mM MgCl2, 10 mM HEPES, 10 mM glucose and 2 mM CaCl2 adjusted to pH 7.4 with NaOH. […]
# [2] = UV-VIS absorption spectrum before and after irradiation; assay type: physicochemical; conditions: solution in DMSO, irradiation with ultraviolet light (380 nm)
# [3] = Lipophilicity and solubility observed on handling (data not shown); assay type: physicochemical
# Source text: SIB-1757 (48) (Sigma Aldrich) is a moderate-affinity non-competitive antagonist of mGlu5 [J. Pharmacol. Exp. Thr., 1999, 290, 170-181]. […] However, we tested the molecule on a cell line heterogously expressing mGlu5, to ensure that the biological effect of SIB-1757 (48) on the target receptor is not light dependent. […] Moreover, we observed a high lipophilicity of the molecule, and also a low solubility, which make SIB-1757 (48) quite uneasy to handle for biological applications (not shown).
# T1 sequence (P31424 21-1171 isoform P31424-2 limits assumed): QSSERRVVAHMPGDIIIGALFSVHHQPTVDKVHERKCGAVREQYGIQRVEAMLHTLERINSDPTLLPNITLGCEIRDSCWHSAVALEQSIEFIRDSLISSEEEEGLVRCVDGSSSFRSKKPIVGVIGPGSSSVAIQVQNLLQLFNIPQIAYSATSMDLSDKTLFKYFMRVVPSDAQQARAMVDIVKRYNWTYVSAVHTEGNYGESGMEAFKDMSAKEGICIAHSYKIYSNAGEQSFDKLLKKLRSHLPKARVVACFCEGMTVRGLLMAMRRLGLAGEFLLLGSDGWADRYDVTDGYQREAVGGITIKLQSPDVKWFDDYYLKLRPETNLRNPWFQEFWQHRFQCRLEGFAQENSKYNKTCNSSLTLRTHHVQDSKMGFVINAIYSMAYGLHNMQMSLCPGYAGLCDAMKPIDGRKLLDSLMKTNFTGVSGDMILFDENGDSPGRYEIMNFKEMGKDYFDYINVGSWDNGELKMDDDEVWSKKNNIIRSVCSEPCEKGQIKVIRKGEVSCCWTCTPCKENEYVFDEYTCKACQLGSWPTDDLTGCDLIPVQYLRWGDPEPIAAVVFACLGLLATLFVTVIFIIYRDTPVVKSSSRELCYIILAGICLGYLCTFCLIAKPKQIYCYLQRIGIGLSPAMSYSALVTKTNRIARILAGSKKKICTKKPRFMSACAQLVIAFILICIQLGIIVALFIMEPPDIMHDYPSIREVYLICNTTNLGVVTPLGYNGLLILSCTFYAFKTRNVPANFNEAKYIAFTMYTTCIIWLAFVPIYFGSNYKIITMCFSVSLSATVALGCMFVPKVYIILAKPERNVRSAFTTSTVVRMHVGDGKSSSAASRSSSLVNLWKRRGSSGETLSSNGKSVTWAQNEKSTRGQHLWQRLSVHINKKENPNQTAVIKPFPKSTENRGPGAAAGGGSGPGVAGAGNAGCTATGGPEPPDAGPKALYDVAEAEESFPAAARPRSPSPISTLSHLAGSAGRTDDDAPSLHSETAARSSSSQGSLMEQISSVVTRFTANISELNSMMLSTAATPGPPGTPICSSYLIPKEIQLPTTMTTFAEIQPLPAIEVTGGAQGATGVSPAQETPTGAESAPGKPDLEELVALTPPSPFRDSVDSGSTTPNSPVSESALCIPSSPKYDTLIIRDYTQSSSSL
compound,measurement,setting,value
Cc1ccc(O)c(/N=N/c2ccccc2)n1 [SIB-1757],effect on mGlu5 response (calcium oscillations),[1]; HEK tsA201 cells,clearly an antagonist of mGlu5
same,light dependence of the activity on mGlu5,[1]; UV (380/390 nm) and visible (500/490 nm) light,not light-dependent
same,photoswitch in the UV-VIS absorption spectrum,[2],did not reveal any photoswitch
same,lipophilicity,[3],high
same,solubility,[3],low

# Reference: patent publication EP2853565A1, “Glutamate receptor photomodulators” (Consejo Superior De Investigaciones Científicas, priority 2013, dated 2015)
